Data published in PubChem BioAssay (NCI).
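How tested: cells in 96-well plates exposed to compound for 48 hours at five concentrations. TGI: concentration producing complete growth inhibition.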

Legend:
Assay in all cases: NCI anticancer screen, dose series, 48 h
786-0 renal = tested on: 786-0 renal
A498 renal = tested on: A498 renal
A549 NSCLC = tested on: A549 NSCLC
ACHN renal = tested on: ACHN renal
BT-549 breast = tested on: BT-549 breast
CAKI-1 renal = tested on: CAKI-1 renal
CCRF-CEM leukemia = tested on: CCRF-CEM leukemia
COLO 205 colon = tested on: COLO 205 colon
DU-145 prostate = tested on: DU-145 prostate
EKVX NSCLC = tested on: EKVX NSCLC
HCC-2998 colon = tested on: HCC-2998 colon
HCT-116 colon = tested on: HCT-116 colon
HCT-15 colon = tested on: HCT-15 colon
HL-60(TB) leukemia = tested on: HL-60(TB) leukemia
HOP-92 NSCLC = tested on: HOP-92 NSCLC
HS 578T breast = tested on: HS 578T breast
HT29 colon = tested on: HT29 colon
IGROV1 ovarian = tested on: IGROV1 ovarian
K-562 leukemia = tested on: K-562 leukemia
KM12 colon = tested on: KM12 colon
LOX IMVI melanoma = tested on: LOX IMVI melanoma
M14 melanoma = tested on: M14 melanoma
MCF7 breast = tested on: MCF7 breast
MDA-MB-231 breast = tested on: MDA-MB-231 breast
MDA-MB-435 = tested on: MDA-MB-435
MDA-N = tested on: MDA-N
MOLT-4 leukemia = tested on: MOLT-4 leukemia
NCI-H226 lung = tested on: NCI-H226 lung
NCI-H23 lung = tested on: NCI-H23 lung
NCI-H460 lung = tested on: NCI-H460 lung
NCI-H522 lung = tested on: NCI-H522 lung
NCI/ADR-RES ovarian = tested on: NCI/ADR-RES ovarian
OVCAR-3 ovarian = tested on: OVCAR-3 ovarian
OVCAR-4 ovarian = tested on: OVCAR-4 ovarian
OVCAR-5 ovarian = tested on: OVCAR-5 ovarian
OVCAR-8 ovarian = tested on: OVCAR-8 ovarian
PC-3 prostate = tested on: PC-3 prostate
RPMI-8226 leukemia = tested on: RPMI-8226 leukemia
RXF 393 renal = tested on: RXF 393 renal
SF-268 CNS = tested on: SF-268 CNS
SF-295 CNS = tested on: SF-295 CNS
SF-539 CNS = tested on: SF-539 CNS
SK-MEL-2 melanoma = tested on: SK-MEL-2 melanoma
SK-MEL-28 melanoma = tested on: SK-MEL-28 melanoma
SK-MEL-5 melanoma = tested on: SK-MEL-5 melanoma
SK-OV-3 ovarian = tested on: SK-OV-3 ovarian
SN12C renal = tested on: SN12C renal
SNB-19 CNS = tested on: SNB-19 CNS
SNB-75 CNS = tested on: SNB-75 CNS
SR leukemia = tested on: SR leukemia
SW-620 colon = tested on: SW-620 colon
T-47D breast = tested on: T-47D breast
TK-10 renal = tested on: TK-10 renal
U251 CNS = tested on: U251 CNS
UACC-257 melanoma = tested on: UACC-257 melanoma
UACC-62 melanoma = tested on: UACC-62 melanoma
UO-31 renal = tested on: UO-31 renal

COC(=O)CCC(=O)NC1=C(NCc2ccccc2)C(=O)c2ccccc2C1=O
TGI (786-0 renal): > 100 µM
TGI (A498 renal): > 100 µM
TGI (A549 NSCLC): > 100 µM
TGI (ACHN renal): > 100 µM
TGI (BT-549 breast): > 100 µM
TGI (CAKI-1 renal): 72.8 µM
TGI (CCRF-CEM leukemia): > 100 µM
TGI (COLO 205 colon): 76.1 µM
TGI (DU-145 prostate): > 100 µM
TGI (EKVX NSCLC): > 100 µM
TGI (HCC-2998 colon): > 100 µM
TGI (HCT-116 colon): > 100 µM
TGI (HCT-15 colon): 51.5 µM
TGI (HL-60(TB) leukemia): > 100 µM
TGI (HOP-92 NSCLC): 48.2 µM
TGI (HS 578T breast): > 100 µM
TGI (HT29 colon): > 100 µM
TGI (IGROV1 ovarian): 53.7 µM
TGI (K-562 leukemia): > 100 µM
TGI (KM12 colon): > 100 µM
TGI (LOX IMVI melanoma): 77.2 µM
TGI (M14 melanoma): > 100 µM
TGI (MCF7 breast): 58.2 µM
TGI (MDA-MB-231 breast): 85.7 µM
TGI (MDA-MB-435): 34.9 µM
TGI (MDA-N): 29.6 µM
TGI (MOLT-4 leukemia): > 100 µM
TGI (NCI-H226 lung): > 100 µM
TGI (NCI-H23 lung): 64.6 µM
TGI (NCI-H460 lung): > 100 µM
TGI (NCI-H522 lung): 50 µM
TGI (NCI/ADR-RES ovarian): > 100 µM
TGI (OVCAR-3 ovarian): 33.3 µM
TGI (OVCAR-4 ovarian): 49.8 µM
TGI (OVCAR-5 ovarian): 98.7 µM
TGI (OVCAR-8 ovarian): > 100 µM
TGI (PC-3 prostate): > 100 µM
TGI (RPMI-8226 leukemia): > 100 µM
TGI (RXF 393 renal): > 100 µM
TGI (SF-268 CNS): > 100 µM
TGI (SF-295 CNS): > 100 µM
TGI (SF-539 CNS): 43.8 µM
TGI (SK-MEL-2 melanoma): 67.1 µM
TGI (SK-MEL-28 melanoma): > 100 µM
TGI (SK-MEL-5 melanoma): 24.9 µM
TGI (SK-OV-3 ovarian): > 100 µM
TGI (SN12C renal): 88.2 µM
TGI (SNB-19 CNS): > 100 µM
TGI (SNB-75 CNS): > 100 µM
TGI (SR leukemia): > 100 µM
TGI (SW-620 colon): 59.2 µM
TGI (T-47D breast): > 100 µM
TGI (TK-10 renal): > 100 µM
TGI (U251 CNS): 94.8 µM
TGI (UACC-257 melanoma): 34.1 µM
TGI (UACC-62 melanoma): 33.1 µM
TGI (UO-31 renal): > 100 µM
